Data published in ChEMBL document CHEMBL4411307, “N,N'-diaryl-bishydrazones in a biphenyl platform: Broad spectrum antifungal agents” (Eur J Med Chem, 2019).
Values after ≈ are worked out from the molar mass of the structure shown. Active and inactive are the calls of the source. No cut-off for these calls is given here.

Key:
[1] = Selectivity index, ratio of CC50 for human A549 cells to MIC for Aspergillus flavus ATCC MYA-3631; format: toxicity; details: read-out: Selectivity Index
[2] = Selectivity index, ratio of CC50 for human A549 cells to MIC for Candida parapsilosis ATCC 22019; format: toxicity; details: read-out: Selectivity Index
[3] = Selectivity index, ratio of CC50 for human A549 cells to MIC for Candida glabrata ATCC 2001; format: toxicity; details: read-out: Selectivity Index
[4] = Selectivity index, ratio of CC50 for human A549 cells to MIC for fluconazole/ITC-susceptible Candida albicans ATCC MYA-2310; format: toxicity; details: read-out: Selectivity Index
Staphylococcus aureus = assay: Antibacterial activity against methicillin-resistant Staphylococcus aureus; format: functional, organism-based
Candida albicans [5] = assay: Antifungal activity against fluconazole/ITC-resistant Candida albicans ATCC 90819 measured after 48 hrs by CLSI M27-A3 protocol based method; format: functional; details: ATCC 90819, 48 h
Pichia kudriavzevii = assay: Antifungal activity against Candida krusei ATCC 6258 measured after 48 hrs by CLSI M27-A3 protocol based method; format: functional; details: ATCC 6258, 48 h
[6] = Selectivity index, ratio of CC50 for human A549 cells to MIC for Aspergillus nidulans ATCC 38163; format: toxicity; details: read-out: Selectivity Index
Aspergillus terreus = assay: Antifungal activity against Aspergillus terreus ATCC MYA-3633 measured after 48 hrs by CLSI M38-A2 protocol based method; format: functional; details: ATCC MYA-3633, 48 h
BEAS-2B = assay: Cytotoxicity against human BEAS2B cells after 24 hrs by resazurin based assay; format: cell-based
Candida albicans [7] = assay: Antifungal activity against fluconazole/ITC-susceptible Candida albicans ATCC MYA-2876 measured after 48 hrs by CLSI M27-A3 protocol based method; format: functional; details: ATCC MYA-2876, 48 h
Enterococcus = assay: Antibacterial activity against vancomycin-resistant Enterococcus; format: functional, organism-based
Candida parapsilosis = assay: Antifungal activity against Candida parapsilosis ATCC 22019 measured after 48 hrs by CLSI M27-A3 protocol based method; format: functional; details: Lodderomyces parapsilosis, ATCC 22019, 48 h
Candida albicans [8] = assay: Antifungal activity against fluconazole/ITC-resistant Candida albicans ATCC 10231 measured after 48 hrs by CLSI M27-A3 protocol based method; format: functional; details: ATCC 10231, 48 h
Nakaseomyces glabratus = assay: Antifungal activity against Candida glabrata ATCC 2001 measured after 48 hrs by CLSI M27-A3 protocol based method; format: functional; details: CBS 138, 48 h
Candida albicans [9] = assay: Antifungal activity against fluconazole/ITC-resistant Candida albicans ATCC 64124 measured after 48 hrs by CLSI M27-A3 protocol based method; format: functional; details: ATCC 64124, 48 h
[10] = Selectivity index, ratio of CC50 for human A549 cells to MIC for Candida krusei ATCC 6258; format: toxicity; details: read-out: Selectivity Index
[11] = Selectivity index, ratio of CC50 for human A549 cells to MIC for fluconazole/ITC-resistant Candida albicans ATCC 90819; format: toxicity; details: read-out: Selectivity Index
Candida albicans [12] = assay: Antifungal activity against fluconazole/ITC-resistant Candida albicans ATCC MYA-1003 measured after 48 hrs by CLSI M27-A3 protocol based method; format: functional; details: ATCC MYA-1003, 48 h
Aspergillus nidulans = assay: Antifungal activity against Aspergillus nidulans ATCC 38163 measured after 48 hrs by CLSI M38-A2 protocol based method; format: functional; details: ATCC 38163, 48 h
[13] = Selectivity index, ratio of CC50 for human A549 cells to MIC for fluconazole/ITC-susceptible Candida albicans ATCC MYA-2876; format: toxicity; details: read-out: Selectivity Index
Candida albicans [14] = assay: Antifungal activity against fluconazole/ITC-resistant Candida albicans ATCC MYA-1237 measured after 48 hrs by CLSI M27-A3 protocol based method; format: functional; details: ATCC MYA-1237, 48 h
[15] = Selectivity index, ratio of CC50 for human A549 cells to MIC for Aspergillus terreus ATCC MYA-3633; format: toxicity; details: read-out: Selectivity Index
A549 = assay: Cytotoxicity against human A549 cells after 24 hrs by resazurin based assay; format: cell-based; details: a549, 24 h
[16] = Selectivity index, ratio of CC50 for human A549 cells to MIC for fluconazole/ITC-resistant Candida albicans ATCC MYA-1003; format: toxicity; details: read-out: Selectivity Index
[17] = Selectivity index, ratio of CC50 for human A549 cells to MIC for fluconazole/ITC-resistant Candida albicans ATCC 10231; format: toxicity; details: read-out: Selectivity Index
Listeria monocytogenes = assay: Antibacterial activity against Listeria monocytogenes; format: functional, organism-based
Aspergillus flavus = assay: Antifungal activity against Aspergillus flavus ATCC MYA-3631 measured after 48 hrs by CLSI M38-A2 protocol based method; format: functional; details: ATCC MYA-3631, 48 h
Candida albicans [18] = assay: Antifungal activity against fluconazole/ITC-susceptible Candida albicans ATCC MYA-2310 measured after 48 hrs by CLSI M27-A3 protocol based method; format: functional; details: ATCC MYA-2310, 48 h
[19] = Selectivity index, ratio of CC50 for human A549 cells to MIC for fluconazole/ITC-resistant Candida albicans ATCC MYA-1237; format: toxicity; details: read-out: Selectivity Index
[20] = Selectivity index, ratio of CC50 for human A549 cells to MIC for fluconazole/ITC-resistant Candida albicans ATCC 64124; format: toxicity; details: read-out: Selectivity Index

## Fc1ccccc1N/N=C/c1ccc(-c2cccc(/C=N/Nc3ccccc3F)c2)cc1
[1]
  selectivity ratio: > 4.2
[2]
  selectivity ratio: 1.1
[3]
  selectivity ratio: 0.5
[4]
  selectivity ratio: 0.5
Staphylococcus aureus
  Activity: inactive
Candida albicans [5]
  MIC: 15.6 µg/mL (≈ 36.6 µM)
Pichia kudriavzevii
  MIC: 1.95 µg/mL (≈ 4.57 µM)
[6]
  selectivity ratio: 2.1
Aspergillus terreus
  MIC: > 31.3 µg/mL
BEAS-2B
  CC50: > 31 µg/mL
Candida albicans [7]
  MIC: > 31.3 µg/mL
Enterococcus
  Activity: inactive
Candida parapsilosis
  MIC: 15.6 µg/mL (≈ 36.6 µM)
Candida albicans [8]
  MIC: 7.8 µg/mL (≈ 18.3 µM)
Nakaseomyces glabratus
  MIC: > 31.3 µg/mL
Candida albicans [9]
  MIC: 7.8 µg/mL (≈ 18.3 µM)
[10]
  selectivity ratio: 8.4
[11]
  selectivity ratio: 1.1
Candida albicans [12]
  MIC: 7.8 µg/mL (≈ 18.3 µM)
Aspergillus nidulans
  MIC: 7.8 µg/mL (≈ 18.3 µM)
[13]
  selectivity ratio: 0.5
Candida albicans [14]
  MIC: > 31.3 µg/mL
[15]
  selectivity ratio: 0.5
A549
  CC50: 16.4 µg/mL (≈ 38.5 µM)
[16]
  selectivity ratio: 2.1
[17]
  selectivity ratio: 2.1
Listeria monocytogenes
  Activity: inactive
Aspergillus flavus
  MIC: 3.9 µg/mL (≈ 9.14 µM)
Candida albicans [18]
  MIC: 31.3 µg/mL (≈ 73.4 µM)
[19]
  selectivity ratio: 0.5
[20]
  selectivity ratio: 2.1
